Key:
[1] = tested on: pancreatic islets of WT mice; test: Quantification of islets and hormone-expressing cells in GABA-treated WT mice (immunohistochemistry, pixel counting); type: in vivo, mouse; details: versus aged-matched controls; for Glucagon+ cell count / Somatostatin+ cell count / Insulin+ cell count: pixel counting; for Insulin+ cell count / Islet count / Islet size: mean ± SEM; for Islet count / Islet size: treatment age 2.6 m
Experimental: (§1) Immunohistochemistry: Tissues were fixed in 4% PFA for 30 min at 4° C., embedded in paraffin and 8 μm sections applied to slides. These sections were assayed as described previously [Collombat et al., 2003]. The primary antibodies used were the following: guinea pig polyclonal anti-insulin (1/500-Linco), anti-glucagon (1/500-Milipore), mouse monoclonal anti-glucagon (1/500-Sigma), anti-BrdU (1/40-Roche), anti-E-cadherin (1/200-BD Transduction Lab), rat anti-somatostatin (1/250-Millipore), rabbit anti-Glut2 (1/5000), anti-PC1/3 (1/500-Milipore), anti-Nkx6.1 (1/3000-Novonordisk), anti-Pdx1 (1/1000), anti-NeuroD1 (1/200-Milipore), anti-Ngn3 (1/500-Abgent), anti-β-galactosidase (1/10000-Milipore), chicken anti vimentin (1/5000-Milipore), goat anti-osteopontin (1/200-R&D Systems). The secondary antibodies (1/1000-Molecular Probes) used were: 594- and 488-alexa anti-mouse; 594- and 488-alexa anti-rabbit; 594- and 488-alexa anti-guinea pig; 488-alexa anti-rat; 594- and 488-alexa anti-goat; 594- and 488-alexa anti-chicken. Pictures were processed using ZEISS Axioimager Z1 and LEICA DM 6000 B. For quantification purpose, stained cells were counted manually on every tenth section.
Cell counts: Quantitative analyses were performed by the counting of colored pixels on (immuno-) stained sections of pancreas using the Photoshop software. Specifically, every 10th section was processed using the same settings for all animals and genotypes.

WT mice [2] = test: Streptozotocin-mediated diabetes in WT mice treated with GABA; type: in vivo, mouse
Source text: (§2) FIG. 4: The β-like cell mass can be regenerated following streptozotocin treatment in GABA-treated mice, the neo-generated insulin^+ cells being functional. […] Such a recovery is associated with a clear regeneration of their β-cell mass monitored 5, 10, 25 and 45 days post-streptozotocin administration by immunochemistry. 85 days post-streptozotocin injection, GABA- and STZ-treated WT and non-treated controls were subjected to a glucose tolerance test (GTT) (B).
Induction of streptozotocin-mediated diabetes: To induce hyperglycaemia, STZ (Sigma) was dissolved in 0.1M sodium citrate buffer (pH 4.5), and a single dose was administered intraperitoneally (100 mg/kg) within 10 min of dissolution. Diabetes progression was assessed by the monitoring of blood glucose levels of the mice.
A functional β-cell mass can be regenerated following chemically-induced diabetes in GABA-treated animals: To determine whether neo-formed insulin^+ cells could functionally replace endogenous β-cells, we injected WT animals with a high dose of streptozotocin to obliterate the endogenous β-cell mass.

WT mice [3] = test: Glucose tolerance test in GABA- and STZ-treated WT mice; type: in vivo, mouse; details: surviving GABA-treated mice, 85 days post-streptozotocin, versus controls not treated with GABA or streptozotocin
Source text: as §2

[4] = tested on: Arx mRNA in α-TC1-6 cells; test: Relative Arx mRNA expression in α-TC1-6 cells treated with GABA; type: cell-based; details: α-TC1-6 cell line, increasing GABA concentrations, different periods of time, versus non-treated cells
Experimental: Relative Arx mRNA expression was measured in the different conditions.
RNA Analysis: RNA was isolated (RNEASY® (RNA isolation kit), Qiagen) and cDNA synthesis ([…]® (cDNA synthesis kit) choice system, Invitrogen) was performed according to the manufacturer's instructions. Quantitative RT-PCR was carried out using validated primers (Qiagen) and the […]® SYBR Green RT-PCR Kit (Qiagen) following manufacturer's instructions. PCR reactions and detection were performed on a […]® ep realplex cycler using GAPDH and HPRT1 as internal controls for normalization purposes.

insulin+ cells = test: Endocrine cell marker expression of insulin+ cells in GABA-treated pancreata (immunochemistry); type: in vivo, mouse; details: GABA-treated islets versus non-treated controls; Pdx1, Nkx6.1, NeuroD1, Glut 2, PC1/3, Pax6
Experimental: as §1
To ascertain the identity of the insulin^+ cells in GABA-treated pancreata, we assayed the expression of several endocrine cell marker genes by immunochemistry compared to non-treated controls. […]

[5] = tested on: glucagon-expressing cells; test: β-galactosidase lineage tracing in Glu-Cre::Rosa26-lox-β-gal mice treated with streptozotocin and GABA; type: in vivo, mouse; details: isolated 40 days post-streptozotocin injection, daily GABA
Experimental: β-galactosidase-based lineage-tracing experiments: Pancreatic tissues were isolated and fixed for 30 min at 4° C. in a solution containing 1% formaldehyde, 0.2% glutaraldehyde, 0.02% NP40. The tissues were dehydrated in 25% sucrose overnight at 4° C. Prior to sectioning, tissues were embedded in freezing medium. For β-galactosidase activity assessment, the tissues were washed in PBS and then incubated overnight in staining solution (500 mM K3Fe(CN)6, 250 mM K4Fe(CN)6, 0.5M MgCl2, 40 mg/ml X-gal in DMF).
Several examples, from unrelated islets, of cells co-expressing insulin with glucagon were noted. […] To validate this hypothesis, we used Glu-Cre::Rosa26-lox-β-gal mice. […] It is important to note that such double-positive cells (in lesser proportion) are also observed in GABA-treated Glu-Cre::Rosa26-lox-β-gal animals not subjected to streptozotocin administration.

[6] = tested on: pancreatic cells of WT mice; test: BrdU cell proliferation in GABA-treated WT mice; type: in vivo, mouse
Source text: Thus, to gain further insight into the mechanisms underlying these processes, we administered the thymidine analogue 5-bromo-2′-deoxyuridine (BrdU) to detect actively replicating cells. […] In addition, glucagon^+ and somatostatin^+ cells were not uniformly distributed within the islet mantle but rather found clustered at a pole of the islet, adjacent to neighboring ducts, unlike in controls where the distribution of the non-β-cells were found scattered in the mantle of the islets.

Ngn3 = Ngn3 immunohistochemistry in GABA-treated pancreata; type: in vivo, mouse; details: no Ngn3 expression in control animals
Experimental: as §1, with “section. […]” for “section.”

mice = details: streptozotocin-induced diabetes in mice (Soltani et al., 2011; Gomez et al., 2007); cited from earlier work
NOD mice = NOD mice (Soltani et al., 2011; Tian et al., 2011); cited from earlier work
[7] = Life expectancy, basal glycemia and general health of GABA-treated WT mice

NCCCC(=O)O [GABA, gamma-amino butyric acid]
Glucagon+ cell count ([1]; GABA 1 month): x 0.97
Somatostatin+ cell count ([1]; GABA 1 month): x 1.43
Insulin+ cell count ([1]; GABA 1 month): x 1.04 ± 0.15
Islet count ([1]; GABA 1 month): x 2.19 ± 0.04
Islet size ([1]; GABA 1 month): x 1.04 ± 0.15
Glucagon+ cell count ([1]; GABA 2 months): x 1.91
Somatostatin+ cell count ([1]; GABA 2 months): x 2.39
Insulin+ cell count ([1]; GABA 2 months): x 2.15 ± 0.22
Islet count ([1]; GABA 2 months): x 1.86 ± 0.05
Islet size ([1]; GABA 2 months): x 2.15 ± 0.22
Glucagon+ cell count ([1]; GABA 3 months): x 3.02
Somatostatin+ cell count ([1]; GABA 3 months): x 2.84
Insulin+ cell count ([1]; GABA 3 months): x 3.49 ± 0.11
Islet count ([1]; GABA 3 months): x 1.80 ± 0.03
Islet size ([1]; GABA 3 months): x 3.49 ± 0.11
Regeneration of insulin+ cells after β-cell loss (WT mice [2]; GABA-treated WT animals after streptozotocin, immunohistochemistry at different time points): progressively regenerated
Glycemia course after streptozotocin (WT mice [2]; WT mice, high dose STZ, GABA started at approximately 300 mg/dl, water controls died from extreme hyperglycemia): steady recovery
Sensitivity to another round of streptozotocin (WT mice [2]; surviving GABA-treated mice, data not shown): not sensitive to STZ
Response to glucose challenge (WT mice [3]): improved response with a lower raise in glycemia and a faster return to euglycemia
Arx mRNA expression [4]: decrease in Arx mRNA expression
Expression of β-cell markers in insulin-expressing cells (insulin+ cells): uniformly expressed the bona fide β-cell markers
Insulin and β-galactosidase co-labelling (conversion of glucagon-expressing cells) [5]: a majority of cells positive for insulin and β-galactosidase
Location of BrdU+ proliferating cells ([6]; GABA-treated WT pancreata, BrdU for 10 days): predominantly located in the ductal lining and in the ductal epithelium
β-cell proliferation ([6]; GABA-treated mice, relative to the size of the islets, data not shown): lack of a significant increase in β-cell proliferation
Ngn3 expression (Ngn3): reactivation of Ngn3 in the ductal environment
Blood glucose levels (mice): decrease blood glucose levels
Diabetes reversal (NOD mice): reverse diabetes
Viability, health and fertility of treated animals ([7]; GABA-treated WT mice): viable, healthy and fertile
Life expectancy ([7]; WT mice, GABA treatment duration 1 month, treatment age 2.6 m): normal
Life expectancy ([7]; WT mice, GABA treatment duration 2 months, treatment age 2.6 m): normal
Life expectancy ([7]; WT mice, GABA treatment duration 3 months, treatment age 2.6 m): normal
Basal glycemia ([7]; WT mice, GABA treatment duration 3 months, treatment age 2.6 m, monitored weekly): 142

Source: US9708608B2, “Methods for producing a population of pancreatic beta-cells” (priority 2012, dated 2017)
